Read-outs that look alike come from different tables or passages of the source.
What was measured:
[1] = once daily (in healthy volunteers); cited from earlier work
PAI-1 [2] = assay: Proof-of-concept study 2: plasma PAI-1 before and after VPA in patients with a history of myocardial infarction; assay type: in vivo, human; conditions: midmorning; for reduction in circulating plasma PAI-1 levels: 16 male patients with history of myocardial infarction, valproic acid 500 mg (Ergenyl Retard) twice daily for 28 days on top of ordinary prescription, p=0.01
Procedure: (§1) The effects of VPA on PAI-1 were analysed in two different proof-of-concept studies in healthy subjects as well as in patients with manifest atherosclerotic disease. […] PAI-1 plasma levels were measured in the morning at the first day of the study as well as at the end of the treatment period with VPA (see example 2 for details on the PAI-1 analysis).
In the second study, 16 non-smoking white male patients, aged 50-80 years with a history of a myocardial infarction were included. On top of their ordinary prescription (beta-blocker, ACE-inhibitor, statin, aspirin) they were treated with valproic acid 500 mg (Ergenyl Retard, Sanofi), twice daily during 28 days.

[3] = Example 3 clinical outcome study in high-risk patients: recurrent atherothrombotic events; assay type: in vivo, human; conditions: 400 mg valproic acid once daily at 11 pm, long-term, expected
Procedure: A clinical outcome study is performed in high-risk patients who have experienced a recent major atherothrombotic cardiovascular event (myocardial infarction or TIA/ischemic stroke) to investigate the preventive effect of valproic acid treatment on the risk for recurrent events. The annual risk for a recurrent atherothrombotic event in the investigated population is estimated to approximately 7%. […] The event rate is monitored by Kaplan-Meyer statistics. The primary efficacy endpoint is the composite measure of either mortality, or non-fatal myocardial infarction or ischemic stroke. The study is event-driven to a total of 180 events. […] Thus, the study is expected to confirm the clinical efficacy and feasibility of using valproic acid for secondary prevention of cardiovascular disease.

[4] = tested on: cultured endothelial cells; assay: PAI-1 mRNA / production in cultured endothelial cells after VPA treatment; assay type: cell-based; conditions: no decrease of PAI-1 mRNA levels, slight but significant increase
PAI-1 [5] = conditions: in vivo model in pig (Svennerholm et al., PLoS One 2014); cited from earlier work
PAI-1 [6] = assay: Plasma PAI-1 in in vivo model in mouse; conditions: in vivo model in mouse (unpublished data)
PAI-1 [7] = assay: Example 2 intermediate endpoint study in patients with TIA/minor stroke: plasma PAI-1 and plasma valproic acid
Procedure: An intermediate endpoint proof-of-concept study is performed in patients with TIA/minor stroke investigated before and after treatment with Valproic acid. Valproic acid is administrated as an enteric-coated tablet with delayed absorption.
The study comprises 20 patients with TIA/minor stroke. Patients are investigated before and after oral treatment with 400 mg valproic acid once time daily at 11 pm for 2 weeks. Plasma PAI-1 levels and plasma concentrations of valproic acid is followed daily during the study period at the following time-points: 3 am, 6 am, 10 am, 16 pm, 22 pm PAI-1 levels are measured by commercially available ELISA-kits (Coaliza PAI-1, ChromogenixAB) and the plasma concentration of valproic acid an metabolites thereof is analyzed according to clinical routine at the Sahlgrenska University laboratory, Gothenburg, Sweden.

PAI-1 [8] = assay: Proof-of-concept study 1: plasma PAI-1 before and after VPA in healthy subjects; assay type: in vivo, human
Procedure: as §1
In the first study, 10 healthy non-smoking white male subjects (with mean BMI of approximately 26), aged 50-70 years were included and treated with valproic acid 500 mg (Ergenyl Retard, Sanofi) twice daily during 14 days.

[9] = cited from earlier work

Which MTD [1] does the source give for `CCN(CC)Cc1ccc2cc(COC(=O)Nc3ccc(C(=O)NO)cc3)ccc2c1.Cl` [Givinostat, {6-[(diethylamino)methyl]-naphthalen-2-yl}methyl[4-(hydroxycarbamoyl)phenyl]carbamate] here?
The MTD was 200 mg once daily (in healthy volunteers).

For `CCCC(CCC)C(=O)O` [valproic acid, 2-propylpentanoic acid], which “reduction in circulating plasma PAI-1 levels” value (PAI-1 [2]) is on record?
The value was 45%.

What about the “reduction in circulating plasma PAI-1 levels” value (PAI-1 [2]; listed as VPA) of the same compound?
The value was “about 45%”.

And the “circulating plasma PAI-1 level after treatment” value (PAI-1 [2]; patients with history of myocardial infarction, valproic acid 500 mg twice daily for 28 days, 19.6 ng/ml before treatment)?
The value was 11 ng/mL.

And the “reduction of risk for recurrent atherothrombotic event” value ([3]; in addition to conventional therapy)?
The value was “approximately 30%”.

What about the “annual absolute event rate” value ([3]; approximately 7% estimated without treatment) of the same compound?
The value was “approximately 5%”.

What about the “increase in PAI-1 production” value [4] of the same compound?
The value was 30%.

What about the “effects on plasma PAI-1” value (PAI-1 [5]) of the same compound?
Its value is “did not detect any effects”.

What about the “effects on plasma PAI-1” value (PAI-1 [6]) of the same compound?
The value was “did not detect any effects”.

And the “time of peak plasma concentration of valproic acid” value (PAI-1 [7]; 400 mg valproic acid enteric-coated tablet with delayed absorption, oral once daily at 11 pm for 2 weeks)?
The value was “between 3 am and 6 am”.

What about the “lowering of plasma PAI-1 levels after the treatment” value (PAI-1 [7]; 400 mg valproic acid oral once daily at 11 pm for 2 weeks) of the same compound?
Its value is “approximately 30%”.

And the “reduction in circulating plasma PAI-1 levels” value (PAI-1 [8]; 10 healthy men aged 50-70, valproic acid 500 mg (Ergenyl Retard) twice daily for 14 days, mid-morning vs before treatment, p<0.05)?
Its value is “more than 50%”.

And the “circulating plasma PAI-1 level after treatment” value (PAI-1 [8]; healthy men, valproic acid 500 mg twice daily for 14 days, mid-morning, 22.2 ng/ml before treatment)?
The value was 10.8 ng/mL.

For `O=C(/C=C/c1cccc(S(=O)(=O)Nc2ccccc2)c1)NO` [Belinostat, (2E)-3-[3-(anilinosulfonyl)phenyl]-N-hydroxy-acrylamide], which MTD ([9]; bidaily) is on record?
The MTD was 1000 mg bidaily.

For `O=C(CCCCCCC(=O)Nc1ccccc1)NO` [Vorinostat, N-hydroxy-N′-phenyl-octanediamide], which MTD ([9]; once daily) is on record?
Its MTD is 400 mg once daily.

For `Cc1[nH]c2ccccc2c1CCNCc1ccc(/C=C/C(=O)NO)cc1` [Panobinostat, (E)-N-hydroxy-3-[4-[[2-(2-methyl-1H-indol-3-yl)ethylamino]methyl]phenyl]prop-2-enamide], which MTD ([9]; every other day) is on record?
The MTD was 20 mg every other day.

For `CCCCc1nc2cc(/C=C/C(=O)NO)ccc2n1CCN(CC)CC` [SB939, (2E)-3-{2-butyl-1-[2-(diethylamino)ethyl]-1H-benzimidazol-5-yl}-N-hydroxyacrylamide], which MTD ([9]; once daily) is on record?
The MTD was 60 mg once daily.

From US20230364089A1, “COMPOUNDS AND COMPOSITIONS FOR THE TREATMENT OR PREVENTION OF PATHOLOGICAL CONDITIONS ASSOCIATED WITH EXCESS FIBRIN DEPOSITION AND/OR THROMBUS FORMATION” (Cereno Scientific AB, priority 2016, published 2023)
